These results are taken from US8067589B2, “Heterocyclic compounds useful in treating diseases and conditions” (Pfizer Inc, priority 2007, dated 2011).

SMILES strings stand for the structures.

In the experiment the target is human recombinant H-PGDS (Homo sapiens, UniProt O60760). In words: Fluoresecence Intensity h-PGDSTBA Enzyme Assay. The following applies: IC50, 5.0 μM PGH2, 2.5 mM L-Glutathione, 10 min preincubation, 4-parameter fit, highest inhibitor concentration typically 1 μM.
human recombinant H-PGDS, sequence (O60760 whole entry): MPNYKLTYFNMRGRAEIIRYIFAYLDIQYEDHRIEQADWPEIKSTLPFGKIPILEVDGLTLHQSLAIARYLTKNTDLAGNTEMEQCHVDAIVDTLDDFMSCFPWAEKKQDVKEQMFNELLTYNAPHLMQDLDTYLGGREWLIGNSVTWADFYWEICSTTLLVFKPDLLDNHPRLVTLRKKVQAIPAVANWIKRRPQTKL

On to `O=C(NC1CCN(C(COc2ccc(F)c(Cl)c2)c2ccccc2)CC1)c1cnc(-c2cccc(F)c2)nc1` (centres unmarked) [Example 42, N-{1-[2-(3-Chloro-4-fluorophenoxy)-1-phenylethyl]piperidin-4-yl}-2-(3-fluorophenyl)pyrimidine-5-carboxamide], for which the IC50 was 54.8 nM.
As for `CC(C)CN1CCC(NC(=O)c2cnc(-c3ccccc3)nc2)CC1` [Example 11, N-(1-Isobutylpiperidin-4-yl)-2-phenyl-pyrimidine-5-carboxamide], the figure is 0.381 nM; as for `NC(=O)c1cccnc1N1C[C@H](O)[C@H](NC(=O)c2cnc(-c3cccc(F)c3)nc2)C1` (relative stereo) [Example 99, Cis-N-{1-[3-(Aminocarbonyl)pyridin-2-yl]-4-hydroxypyrrolidin-3-yl}-2-(3-fluorophenyl)pyrimidine-5-carboxamide], 2.65 nM; as for `CCOC(=O)N1CCC(NC(=O)c2cnc(-c3cc(F)ccc3F)nc2)CC1` [Example 74, Ethyl 4-({[2-(2,5-difluorophenyl)pyrimidin-5-yl]carbonyl}amino)piperidine-1-carboxylate], 3.2 nM.
In the case of `COc1cccc(OCC(c2ccccc2)N2CCC(NC(=O)c3cnc(-c4cccc(F)c4)nc3)CC2)c1` (centres unmarked) [Example 39, 2-(3-Fluorophenyl)-N-{1-[2-(3-methoxyphenoxy)-1-phenylethyl]piperidin-4-yl}pyrimidine-5-carboxamide], the IC50 is 4.44 nM.
